Counter-ions that a name gives are not always drawn.
Test system: not given
Experiment: not given
Conditions: not given

melting point | Structure (SMILES)
159 to 164 °C | O=C(OCCN1CCCC1)c1ccc2c(c1)c1nc3ccccc3c(OCCN3CCCC3)c1n2CCN1CCCC1 (as salt: salt) [1b]
141 to 145 °C | O=C(OCCN1CCOCC1)c1ccc2c(c1)c1nc3ccccc3c(OCCN3CCOCC3)c1n2CCN1CCOCC1 (as salt: salt) [1c]
124 to 128 °C | O=C(OCCCN1CCCCC1)c1ccc2c(c1)c1nc3ccccc3c(OCCCN3CCCCC3)c1n2CCCN1CCCCC1 (as salt: salt) [1d]

Test system: SW620 cells
Experiment: Guava ViaCount assay, SW620
Assay type: cell-based, human
Conditions: SW620, 72 h, IC50 and IC65 concentrations
Excerpt: Subsequently, the Guava ViaCount assay was used to evaluate the effects of IQ3A compounds on cell death induction in cancer (HCT116 and SW620) and non-malignant (HEK293T and CCD18co) cells, compared to 5-FU and TMPyP4 at equitoxic concentrations (IC50 and IC65). Down-regulation of mutant KRAS expression by antisense oligonucleotides in colorectal cancer cells,[8],[30] and by a MAZ-binding oligonucleotide decoy in pancreatic cancer cells has been associated with increased apoptosis and cell growth arrest. Also, anticancer drugs, such as 5-FU and G4 stabilizers of telomeric and oncogene promoter sequences such as TMPyP4, are known to induce a generalized cell response leading to cell growth arrest and cell death by apoptosis (DNA damage response),[32], which involves activation of the pro-apoptotic transcription factor p53 among other pathways in the case of 5-FU [34]. […] The effect of TMPyP4 on SW620 was not studied, as this cell line was not sensitive to this compound up to a 20 μM concentration.
Fig 3 Exposure to IQ3A compounds induces cell death, mainly by apoptosis in HCT116 cells. […] Results are expressed as the mean percentage (%) of viable, mid-apoptotic and dead cells ± SEM, of at least three different experiments, for A. IC50, and for B. IC65 compound concentrations. a, p < 0.05; b, p < 0.01 from DMSO (vehicle control); c, p < 0.05; and d, p < 0.01 from 5-FU. […]

Structure (SMILES) | induction of apoptosis / cell death
O=c1[nH]cc(F)c(=O)[nH]1 [5-FU, 5-fluorouracil, reference compound] | able to induce apoptosis in a dose-dependent manner

Test system: KRAS mRNA
Experiment: KRAS mRNA steady-state levels by Taqman Real-time RT-PCR
Conditions: HCT116, 72 h, IC50 concentrations

Structure (SMILES) | down-regulation of KRAS transcription (mRNA)
CCN(CC)CCOC(=O)c1ccc2c(c1)c1c(c(=O)c3ccccc3n1CCN(CC)CC)n2CCN(CC)CC [2a] | ~40%

Same assay, conditions: SW620, 72 h, IC50 concentrations

Structure (SMILES) | down-regulation of KRAS transcription (mRNA)
CCN(CC)CCOC(=O)c1ccc2c(c1)c1c(c(=O)c3ccccc3n1CCN(CC)CC)n2CCN(CC)CC [2a] | not significantly so

Test system: HEK293T cells
Experiment: MTS short-term cytotoxicity assay (72 h), HEK293T
Assay type: cell-based, human
Conditions: Homo sapiens, HEK-293T, MTS, standard errors ≤ 0.1, read-out: HEK293T IC50
Procedure: (§1) The short-term effect of compounds at 72 h on cell growth was studied using colorectal carcinoma cell lines with different KRAS and TP53 genotypes: human colorectal carcinoma HCT116 (mut Kras, wild-type (wt) p53), and human metastatic colorectal adenocarcinoma SW620 (mut Kras, mut p53). In parallel, we also used the immortalized human embryonic kidney cell line HEK293T (wt Kras, wt p53) and normal human colon fibroblast cells CCD18co (wt Kras, wt p53).
(§2) SW620 human colorectal adenocarcinoma cells (European Collection of Cell Cultures, ECACC, Porton Down, Wiltshire, UK), HEK293T human embryonic kidney cells (ATCC, LGC Standards, UK) HCT116 human colon carcinoma cells (ECACC), HCT116 p53(+/+) and p53(−/−) isogenic human colon cancer cells (GRCF Cell Center and Biorepository, the Johns Hopkins University, School of Medicine, Baltimore, MD, USA), were grown in Dulbecco’s modified Eagle’s medium (DMEM) supplemented with 10% fetal bovine serum, and 1% antibiotic/antimycotic (Invitrogen, Grand Island, NY, USA), CCD18co human colon fibroblasts (ATCC, CRL-1459) were grown in Minimum Essential Medium (MEM) supplemented with 10% fetal bovine serum, 1% antibiotic/antimycotic, 2 mM GlutaMAX, 0,1 mM Non-essential amino acids (NEAA) (Invitrogen) and […] Recombinant Human TNF-α (Peprotech, USA) and maintained at 37°C in a humidified atmosphere of 5% CO2.
(§3) Cell viability was evaluated by the tetrazolium dye (MTS) Short-Term Cytotoxicity Assay. […] Following 72 h of compound exposure, cell viability was evaluated using the CellTiter 96 AQueous Non-Radioactive Cell Proliferation Assay (Promega, Madison, WI, USA), using 3-(4,5-dimethylthiazol-2-yl)-5-(3-carboxymethoxyphenyl)-2-(4-sulfophenyl)-2H-tetrazolium, inner salt (MTS) as previously described [35]. Cell viability data were expressed as mean ±SD from at least three independent experiments. IC50 and IC65 values were determined using GaphPad Prism v.5.00 (GraphPad Software). In selected experiments, cell viability was also assessed by trypan blue exclusion assay, and general cell death by LDH activity from cell culture supernatants.

Structure (SMILES) | IC50
CCN(CC)CCOC(=O)c1ccc2c(c1)c1c(c(=O)c3ccccc3n1CCN(CC)CC)n2CCN(CC)CC [2a] | 0.67 µM
O=c1[nH]cc(F)c(=O)[nH]1 [5-FU, 5-fluorouracil, reference compound] | 2.66 µM

Same assay, conditions: MTS, standard errors ≤ 0.1

Structure (SMILES) | HEK293T IC65
CCN(CC)CCOC(=O)c1ccc2c(c1)c1c(c(=O)c3ccccc3n1CCN(CC)CC)n2CCN(CC)CC [2a] | 0.94 µM
O=c1[nH]cc(F)c(=O)[nH]1 [5-FU, 5-fluorouracil, reference compound] | 4.13 µM

Test system: HSP90A G-quadruplex DNA
Experiment: FRET melting assay, HSP90A G-quadruplex DNA
Assay type: binding
Conditions: 1 μM compound; standard deviation < 0.2°C
Procedure: (§4) The capacity of compounds 1a-d, 2a-d and the standard G4 ligand TMPyP4 (Fig 1) to bind and stabilize KRAS [26] and HSP90A [27] G4 DNA structures as well as duplex DNA (T-loop) was evaluated by a Fluorescence Resonance Energy Transfer (FRET) melting assay. […] It was observed that the basicity of side chains correlates positively with thermal G4 stabilization of all DNA sequences up to an optimal pKa ~ 8.0–9.0 (Fig 2). Heterocyclic amines at the end of alkyl side chain (1b and 2b) appear to improve binding to G4s and complex stabilization compared to the di-ethylamine group (1a and 2a), which cannot be explained by differences in basicity between terminal groups. […] However, this was not observed for the isomeric pair 1a / 2a.
(§5) All oligonucleotides were purchased from Eurofins MWG Synthesis GmbH, Germany. The labeled oligonucleotides used in the FRET assays had attached the donor fluorophore FAM (6-carboxyfluorescein) and the acceptor fluorophore TAMRA (6-carboxytetramethylrhodamine): KRAS21R (5’-FAM-[…]-TAMRA-3’); HSP90A (5’- [FAM]-[…]-[TAMRA]-3’); T-Loop (5’-FAM-[…]-TAMRA-3’). Each oligonucleotide was initially diluted to a storage solution at 100 μM in nuclease free water (not DEPC-treated), purchased from Ambion Applied Biosystems UK.
(§6) The ability of IQ3A and TMPyP4 to stabilize G-quadruplex and duplex DNA sequences was investigated using a Fluorescence Resonance Energy Transfer (FRET) assay. Stock solution of the oligonucleotides sequences at 20 μM and subsequent dilutions were obtained from storage solutions diluting with K-cacodylate buffer pH = 7.4, containing 60 mM K^+ (10 mM potassium cacodylate, 50 mM KCl). The FRET probe sequences were diluted from stock to the correct concentration (0.4 μM) and then annealed by heating to 95°C for 10 min, followed by cooling to RT. Test compounds were prepared as 1 mM in 10% DMSO and 10% 1mM HCl in HPLC-grade water. The rest of the dilutions were performed using FRET buffer. Annealed DNA (50 μL) and compound solution (50 μL) were distributed across 96-well RT-PCR plates (BioRad; MJ Research, Waltham, MA, USA). Relevant controls were also performed to check for interference with the assay. Fluorescence readings were made on a DNA Engine Opticon (MJ Research) with excitation at 450–495 nm and detection at 515–545 nm, taken at intervals of 0.5°C in the range 30–100°C, with a constant temperature being maintained for 30 s prior to each reading to ensure a stable value. Experiments were performed in triplicate. Final analysis of the data was carried out with GraphPad Prism 5.0 software (GraphPad Software, Inc). The advanced curve-fitting function in GraphPad Prism was used for calculation of ΔT m values and associated standard deviations.

Structure (SMILES) | ΔTm (°C) HSP90A 1 μM
CCN(CC)CCOC(=O)c1ccc2c(c1)c1c(c(=O)c3ccccc3n1CCN(CC)CC)n2CCN(CC)CC [2a] | 11 °C

Same assay, conditions: 2 μM compound; standard deviation < 0.2°C

Structure (SMILES) | ΔTm (°C) HSP90A 2 μM
CCN(CC)CCOC(=O)c1ccc2c(c1)c1c(c(=O)c3ccccc3n1CCN(CC)CC)n2CCN(CC)CC [2a] | 15 °C

Test system: HCT116 cells
Experiment: not given
Parameters: method as in PMID 23960016
Conditions: HCT116 vs primary rat hepatocytes; cited from earlier work

Structure (SMILES) | Selective growth inhibition of KRAS mutant HCT116 cells compared to primary rat hepatocytes
CCN(CC)CCOC(=O)c1ccc2c(c1)c1c(c(=O)c3ccccc3n1CCN(CC)CC)n2CCN(CC)CC [2a] | 100 fold

Test system: HCT116 cells
Experiment: MTS short-term cytotoxicity assay (72 h), HCT116
Assay type: cell-based, human
Conditions: 72 h, MTS; standard errors ≤ 0.1
Procedure: as §1, §2, §3

Structure (SMILES) | HCT116 IC65
CCN(CC)CCOC(=O)c1ccc2c(c1)c1c(c(=O)c3ccccc3n1CCN(CC)CC)n2CCN(CC)CC [2a] | 1.60 µM
O=c1[nH]cc(F)c(=O)[nH]1 [5-FU, 5-fluorouracil, reference compound] | 4.13 µM

Same assay, conditions: CCD18co vs HCT116

Structure (SMILES) | Selective index (SI) = IC50 CCD-18co / IC50 HCT116
CCN(CC)CCOC(=O)c1ccc2c(c1)c1c(c(=O)c3ccccc3n1CCN(CC)CC)n2CCN(CC)CC [2a] | 5.46
O=c1[nH]cc(F)c(=O)[nH]1 [5-FU, 5-fluorouracil, reference compound] | > 42

Same assay, conditions: Homo sapiens, HCT-116; 72 h, MTS; standard errors ≤ 0.1; read-out: HCT116 IC50

Structure (SMILES) | IC50
CCN(CC)CCOC(=O)c1ccc2c(c1)c1c(c(=O)c3ccccc3n1CCN(CC)CC)n2CCN(CC)CC [2a] | 0.99 µM
O=c1[nH]cc(F)c(=O)[nH]1 [5-FU, 5-fluorouracil, reference compound] | 2.38 µM

Test system: KRAS21 G-quadruplex DNA
Experiment: FRET melting assay, KRAS G-quadruplex DNA
Assay type: binding
Conditions: 1 μM compound; standard deviation < 0.2°C
Procedure: as §4, §5, §6

Structure (SMILES) | ΔTm (°C) KRAS21 1 μM
CCN(CC)CCOC(=O)c1ccc2c(c1)c1c(c(=O)c3ccccc3n1CCN(CC)CC)n2CCN(CC)CC [2a] | 4 °C

Same assay, conditions: 2 μM compound; standard deviation < 0.2°C

Structure (SMILES) | ΔTm (°C) KRAS21 2 μM
CCN(CC)CCOC(=O)c1ccc2c(c1)c1c(c(=O)c3ccccc3n1CCN(CC)CC)n2CCN(CC)CC [2a] | 7 °C

Test system: CCD18co cells
Experiment: MTS short-term cytotoxicity assay (72 h), CCD18co
Assay type: cell-based
Conditions: Homo sapiens, CCD-18Co, MTS, standard errors ≤ 0.1, read-out: CCD18co IC50
Procedure: as §1, §2, §3

Structure (SMILES) | IC50
CCN(CC)CCOC(=O)c1ccc2c(c1)c1c(c(=O)c3ccccc3n1CCN(CC)CC)n2CCN(CC)CC [2a] | 5.41 µM
O=c1[nH]cc(F)c(=O)[nH]1 [5-FU, 5-fluorouracil, reference compound] | > 100 µM

Test system: T-Loop duplex DNA
Experiment: FRET melting assay, duplex DNA
Assay type: binding
Conditions: 1 μM compound; standard deviation < 0.2°C
Procedure: as §4, §5, §6

Structure (SMILES) | ΔTm (°C) T-Loop 1 μM
CCN(CC)CCOC(=O)c1ccc2c(c1)c1c(c(=O)c3ccccc3n1CCN(CC)CC)n2CCN(CC)CC [2a] | <2 °C

Same assay, conditions: 2 μM compound; standard deviation < 0.2°C

Structure (SMILES) | ΔTm (°C) T-Loop 2 μM
CCN(CC)CCOC(=O)c1ccc2c(c1)c1c(c(=O)c3ccccc3n1CCN(CC)CC)n2CCN(CC)CC [2a] | <2 °C

Test system: SW620 cells
Experiment: MTS short-term cytotoxicity assay (72 h), SW620
Assay type: cell-based
Conditions: 72 h, MTS; standard errors ≤ 0.1
Procedure: as §1, §2, §3

Structure (SMILES) | SW620 IC65
CCN(CC)CCOC(=O)c1ccc2c(c1)c1c(c(=O)c3ccccc3n1CCN(CC)CC)n2CCN(CC)CC [2a] | 1.44 µM
O=c1[nH]cc(F)c(=O)[nH]1 [5-FU, 5-fluorouracil, reference compound] | 8.32 µM

Same assay, conditions: Homo sapiens, SW-620; 72 h, MTS; standard errors ≤ 0.1; read-out: SW620 IC50

Structure (SMILES) | IC50
CCN(CC)CCOC(=O)c1ccc2c(c1)c1c(c(=O)c3ccccc3n1CCN(CC)CC)n2CCN(CC)CC [2a] | 0.67 µM
O=c1[nH]cc(F)c(=O)[nH]1 [5-FU, 5-fluorouracil, reference compound] | 5.39 µM

From publication PMC4449006, “Targeting KRAS Oncogene in Colon Cancer Cells with 7-Carboxylate Indolo[3,2-b]quinoline Tri-Alkylamine Derivatives” (PLoS ONE, 2015)
